From ChEMBL document CHEMBL4651402, “Screening of ~5500 FDA-approved drugs and clinical candidates for anti-SARS-CoV-2 activity” (2021)

Tested on: SARS-CoV-2
Assay: microbe, parasite or virus in culture
Details: Severe acute respiratory syndrome coronavirus 2, Vero C1008, 48 h

SMILES	IC50 [µM]	IC50 (read-out: pIC50 (converted)) [µM]
O=C(Nc1cnccc1Cl)N1CCN(Cc2ccc3c(c2)OC(F)(F)O3)CC1 [JNJ-42165279]	> 20	> 20
COCCOc1c(OC)cc(Cc2cnc(N)nc2N)cc1OC [TETROXOPRIM]	> 20	> 20
O=c1n(CC2CO2)c(=O)n(CC2CO2)c(=O)n1CC1CO1 (stereo not drawn) [TEROXIRONE]	> 20	> 20
CC(C)(C)C(O)/C=C/c1ccc2c(c1)OCO2 (stereo not drawn) [STIRIPENTOL]	> 20	> 20
CCOC(=O)N1CCC(=C2c3ccc(Cl)cc3CCc3cccnc32)CC1 [LORATADINE]	> 20	> 20
CC1Cc2ccccc2N1NC(=O)c1ccc(Cl)c(S(N)(=O)=O)c1 (stereo not drawn) [INDAPAMIDE]	> 20	> 20
CCCOCCn1c(=O)c(N2CCN(CCO)CC2)nc2cnc(-c3ccc(OC)nc3)cc21 [PF-03049423]	> 20	> 20
NC(=O)C1(N2CCCCC2)CCN(CCCN2c3ccccc3CCc3ccc(Cl)cc32)CC1 [CLOCAPRAMINE]	> 20	> 20
Cc1nc(-c2ccc(C(F)(F)F)cc2)sc1C(=O)NCc1ccc(OC(C)(C)C(=O)O)cc1 [GW590735]	> 20	> 20
Clc1ccc(C(Cn2ccnc2)OCc2ccsc2Cl)c(Cl)c1 (stereo not drawn) [TIOCONAZOLE]	> 20	> 20
NCCS [CYSTEAMINE]	> 10	> 10
COc1ccc(CC2c3cc(OC)c(OC)cc3CC[N+]2(C)CCC(=O)OCCCCCOC(=O)CC[N+]2(C)CCc3cc(OC)c(OC)cc3C2Cc2ccc(OC)c(OC)c2)cc1OC (stereo not drawn)	> 20	> 20
C[C@@H]1C[C@H]2[C@@H]3C[C@H](F)C4=CC(=O)C=C[C@]4(C)[C@@]3(Cl)[C@@H](O)C[C@]2(C)[C@H]1C(=O)COC(=O)C(C)(C)C [CLOCORTOLONE PIVALATE]	> 20	> 20
CS(=O)(=O)CCCn1c(Cn2c(=O)n(CC(F)(F)F)c3ccncc32)cc2cc(Cl)ccc21 [RILEMATOVIR]	> 20	> 20
CC[C@@H](c1cccc(O)c1)[C@@H](C)CN(C)C [TAPENTADOL]	> 20	> 20
CC(C)N(CCC(C(N)=O)(c1ccccc1)c1ccccc1)C(C)C	> 20	> 20
C[C@H]1NC(=O)CO[C@@H]1c1ccccc1 (relative stereo)	> 20	> 20
CC12CCC(=O)C=C1CCC1C3CCC(O)(C(=O)CO)C3(C)CC(O)C12F (stereo not drawn)	> 20	> 20
CC(=O)Nc1c(I)cc(I)c(C(=O)O)c1I [ACETRIZOIC ACID]	> 20	> 20
C=CC(=O)N1CC[C@H](n2nc(C#Cc3cc(OC)cc(OC)c3)c3c(N)ncnc32)C1 [FUTIBATINIB]	> 20	> 20
S=C(NCc1ccc2c(c1)OCO2)N1CCN(c2ncnc3c2oc2ccccc23)CC1 [AMUVATINIB]	> 20	> 20
O=C(Nc1ccc(OC(F)(F)F)cc1)c1sccc1NCc1ccnc2ccccc12 [OSI-930]	> 20	> 20
C[C@@H](Nc1ncnc2[nH]c(-c3ccc(O)cc3)cc12)c1ccccc1 [PKI-166]	> 20	> 20

SMILES	IC50 [µM]	IC50 (read-out: pIC50 (converted)) [µM]
O=C(NC1CCNCC1)c1n[nH]cc1NC(=O)c1c(Cl)cccc1Cl [AT-7519]	> 20	> 20
NC(=O)c1[nH]cnc1O	> 20	> 20
CCCC[C@@]1(CC)CS(=O)(=O)c2cc(CNC(CC(=O)O)CC(=O)O)c(OC)cc2[C@H](c2ccccc2)N1	> 20	> 20
CC(C)NC1CCC(c2ccccc2)(c2ccccc2)CC1 [PRAMIVERINE]	> 20	> 20
COc1cc2nccc(Oc3ccc(NC(=O)c4cn(C(C)C)c(=O)n(-c5ccc(F)cc5)c4=O)cc3F)c2cc1OC	> 20	> 20
CCOc1cc(CC(=O)N[C@@H](CC(C)C)c2ccccc2N2CCCCC2)ccc1C(=O)O [REPAGLINIDE]	> 20	> 20
Clc1ccc2c(c1)C(N1CCNCC1)=Nc1ccccc1O2 [AMOXAPINE]	> 20	> 20
CN(C)CCN1C(=O)c2ccccc2N(C)c2ccccc21 [DIBENZEPIN]	> 20	> 20
CC(C)(Oc1ccc(C2CCCc3ccccc32)cc1)C(=O)O (stereo not drawn) [NAFENOPIN]	> 20	> 20
CC1(C)S[C@@H]2[C@H](NC(=O)[C@H](N)c3ccccc3)C(=O)N2[C@H]1C(=O)O [AMPICILLIN]	> 20	> 20
CCC(=O)C(c1ccccc1)(c1ccccc1)C(C)CN(C)C (stereo not drawn) [ISOMETHADONE]	> 20	> 20
CCc1cccc2c3c([nH]c12)C(CC)(CC(=O)O)OCC3 (stereo not drawn) [ETODOLAC]	> 20	> 20
Cc1ccc(C[N+](C)(C)C)o1	> 20	> 20
CC[C@]12CCCN3CCc4c(n(c5ccccc45)[C@@](O)(C(=O)OC)C1)[C@@H]32 [VINCAMINE]	> 20	> 20
CC(=O)N1CCCC1C(=O)O (stereo not drawn) [N-ACETYLPROLINE]	> 20	> 20
O=C(Nc1ccccc1)c1ccccc1O [SALICYLANILIDE]	> 20	> 20
CCCCCCCCCCCCCCCC[N+](C)(C)CCN(Cc1ccc(OC)cc1)c1ncccn1 [THONZONIUM]	> 20	> 20
CCCCCCCCCCCCCCCCOCCCOP(=O)(O)CO[C@H](C)Cn1cnc2c(N)ncnc21 [TENOFOVIR EXALIDEX]	> 20	> 20
C=CC1=C(C(=O)O)N2C(=O)[C@@H](NC(=O)/C(=N\O)c3csc(N)n3)[C@H]2SC1	> 20	> 20
CC(C)NCC(O)c1ccc(O)c(NS(C)(=O)=O)c1 (stereo not drawn) [SOTERENOL]	> 20	> 20
O=C(NCCCN1CCOCC1)c1ccc(Cl)cc1 [EPROBEMIDE]	> 20	> 20
CCN(CC)CCCCC(NC(=O)c1ccc([N+](=O)[O-])cc1)c1ccccc1 (stereo not drawn)	> 20	> 20
CCOc1ccccc1O[C@@H](c1ccccc1)[C@H]1CNCCO1	> 20	> 20

SMILES	IC50 [µM]	IC50 (read-out: pIC50 (converted)) [µM]
CC1CC(OC(=O)c2ccccc2)CC(C)(C)N1 (stereo not drawn)	> 20	> 20
CCCCNC(=O)OCC(C)(CCC)COC(N)=O (stereo not drawn) [TYBAMATE]	> 20	> 20
COc1ccc(C(=O)NCc2cccnc2)cc1C(=O)NCc1cccnc1 [PICOTAMIDE]	> 20	> 20
CCN1C[C@@]2(COC)C3[C@@H](OC)[C@H]4[C@H]1C3([C@@H]1C[C@@]3(O)[C@H](OC(=O)c5ccccc5)[C@@H]1[C@]4(OC(C)=O)[C@@H](O)[C@@H]3OC)[C@H](OC)C[C@H]2O	> 20	> 20
O=C(O)Cc1cccc(-c2cc(CCCCCCc3ccc(O[C@H]4O[C@H](CO)[C@@H](O)[C@H](O)[C@@H]4O)c(-c4cccc(CC(=O)O)c4)c3)ccc2O[C@H]2O[C@H](CO)[C@@H](O)[C@H](O)[C@@H]2O)c1 [BIMOSIAMOSE]	> 20	> 20
N#CC(c1ccc(F)cc1)c1c(Cl)cc(-n2ncc(=O)[nH]c2=O)cc1Cl (stereo not drawn) [LETRAZURIL]	> 20	> 20
CC(C)C1NC(=O)[C@@H](C(C)C)OC(=O)[C@H](C(C)C)NC(=O)[C@H](C)OC(=O)[C@@H](C(C)C)NC(=O)[C@@H](C(C)C)OC(=O)[C@H](C(C)C)NC(=O)[C@H](C)OC(=O)[C@@H](C(C)C)NC(=O)[C@@H](C(C)C)OC(=O)[C@H](C(C)C)NC(=O)[C@H](C)OC1=O (stereo partly drawn)	> 20	> 20
C[C@@H]1CC[C@@]2(OC1)O[C@H]1C[C@H]3[C@@H]4CC=C5C[C@@H](O)CC[C@]5(C)[C@H]4CC[C@]3(C)[C@H]1[C@@H]2C [DISOGENIN]	> 20	> 20
CC(C)N1CCN(c2ccc(N3CCN(c4ccc(OC[C@H]5OC[C@](Cn6cncn6)(c6ccc(F)cc6F)O5)cc4)CC3)cc2)C1=O (racemic) [PRAMICONAZOLE]	> 20	> 20
O=C1NCCN1CCN1CCC(c2cn(-c3ccc(F)cc3)c3ccc(Cl)cc23)CC1 [SERTINDOLE]	> 20	> 20
O=C1C[C@@H]2OCC=C3CN4CC[C@]56c7ccccc7N1[C@H]5[C@H]2[C@H]3C[C@H]46 [STRYCHNINE]	> 20	> 20
O=C(O)CC(=O)O [MALONIC ACID]	> 20	> 20
Cc1ccc(C(=O)c2cc(O)c(O)c([N+](=O)[O-])c2)cc1 [TOLCAPONE]	> 20	> 20
COC(=O)C1=C(C)NC(C)=C(C(=O)OCCCN2CCC(c3ccccc3)(c3ccccc3)CC2)C1c1cccc([N+](=O)[O-])c1 (stereo not drawn)	> 20	> 20
Cc1ncc(CNC(=O)N(CCCl)N=O)c(N)n1 [NIMUSTINE]	> 20	> 20
COc1cc2nccc(Oc3ccc(NC(=O)Nc4cc(C)on4)c(Cl)c3)c2cc1OC [TIVOZANIB]	> 20	> 20
CN(C)C(=O)Oc1cccc([N+](C)(C)C)c1 [NEOSTIGMINE]	> 20	> 20
OC[C@H]1O[C@@](O)(CO)[C@@H](O)[C@@H]1O	> 20	> 20
CCN1CCN(C(=O)N[C@@H](C(=O)N[C@@H]2C(=O)N3C(C(=O)O)=C(CSc4nnnn4C)CS[C@H]23)c2ccc(O)cc2)C(=O)C1=O [CEFOPERAZONE]	> 20	> 20
O=c1c(O)c(-c2ccc(O)cc2O)oc2cc(O)cc(O)c12 [MORIN]	> 20	> 20
CC(C)[C@H](N)C(=O)OCC(CO)OCn1cnc2c(=O)[nH]c(N)nc21 (stereo partly drawn) [VALGANCICLOVIR]	> 20	> 20
COc1cc2c(cc1O)[C@@H]1Cc3ccc(OC)c(O)c3CN1CC2 [SCOULERINE]	> 20	> 20
CCc1nc(N)nc(N)c1-c1ccc(Cl)c(Cl)c1 [ETOPRINE]	> 20	> 20
